Measured values: PubChem BioAssay AID1963423 (Molecular Pharmacology Branch, DTP, NCI, 2024)

Test system: 439559-082-T-J2-PDC complex spheroid growth
Assay: Anticancer human tumor 439559-082-T-J2-PDC patient-derived colon adenocarcinoma cell line growth inhibition [Asc]
Conditions: for IC50: curve of first compound; for viability, T/C: stronger effect = lower value
In short: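 Complex spheroids combining tumor cells with HUVEC endothelial cells and human MSCs, at 37 degrees C, 5% CO2; agents tested alone or combined, half-log dilutions from at or near clinical Cmax, or 10 microM if Cmax unknown.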

[1] = second compound 0.03 µM, first compound 0.0316 µM
[2] = second compound 0.03 µM, first compound 0.1 µM
[3] = second compound 0.03 µM, first compound 0.316 µM
[4] = second compound 0.03 µM, first compound 1 µM
[5] = second compound 0.03 µM, first compound 3.16 µM
[6] = second compound 0.03 µM, first compound 10 µM
[7] = second compound 0.0949 µM, first compound 0.0316 µM
[8] = second compound 0.0949 µM, first compound 0.1 µM
[9] = second compound 0.0949 µM, first compound 0.316 µM
[10] = second compound 0.0949 µM, first compound 1 µM
[11] = second compound 0.0949 µM, first compound 3.16 µM
[12] = second compound 0.0949 µM, first compound 10 µM
[13] = second compound 0.3 µM, first compound 0.0316 µM
[14] = second compound 0.3 µM, first compound 0.1 µM
[15] = second compound 0.3 µM, first compound 0.316 µM
[16] = second compound 0.3 µM, first compound 1 µM
[17] = second compound 0.3 µM, first compound 3.16 µM
[18] = second compound 0.3 µM, first compound 10 µM
[19] = second compound 0.949 µM, first compound 0.0316 µM
[20] = second compound 0.949 µM, first compound 0.1 µM
[21] = second compound 0.949 µM, first compound 0.316 µM
[22] = second compound 0.949 µM, first compound 1 µM
[23] = second compound 0.949 µM, first compound 3.16 µM
[24] = second compound 0.949 µM, first compound 10 µM
[25] = second compound 3 µM, first compound 0.0316 µM
[26] = second compound 3 µM, first compound 0.1 µM
[27] = second compound 3 µM, first compound 0.316 µM
[28] = second compound 3 µM, first compound 1 µM
[29] = second compound 3 µM, first compound 3.16 µM
[30] = second compound 3 µM, first compound 10 µM
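Also: spheroids exposed to agents for 7 days starting day 3 after seeding.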
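For viability, T/C in this document: percent of DMSO vehicle control viability with 100% = vehicle.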

`C#Cc1c(F)ccc2cc(O)cc(-c3ncc4c(N5CC6CCC(C5)N6)nc(OCC56CCCN5CC(F)C6)nc4c3F)c12` (stereo not given) + CCN1C(C(=O)NC23CCC(C(=O)O)(CC2)CC3)C(c2cccc(Cl)c2F)C2(C(=O)Nc3cc(Cl)ccc32)C12CCCCC2 was tested, and the IC50 (second compound 0.03 µM) was 1.16 µM, the IC50 (second compound 0.0949 µM) was 2.2 µM and the IC50 (second compound 0.3 µM) was 1.63 µM. It also gave an IC50 (second compound 0.949 µM) of 2.19 µM, an IC50 (second compound 3 µM) of 0.593 µM and a viability, T/C [1] of 88%. It also gave a viability, T/C [2] of 81.7%, a viability, T/C [3] of 64% and a viability, T/C [4] of 50%. The viability, T/C [5] was 48.4%, the viability, T/C [6] was 40% and the viability, T/C [7] was 88.8%. For the same compound, the viability, T/C [8] was 84.8%, the viability, T/C [9] was 74.5% and the viability, T/C [10] was 55.2%. It also gave a viability, T/C [11] of 49.7%, a viability, T/C [12] of 36.2% and a viability, T/C [13] of 88.5%. It also gave a viability, T/C [14] of 83.5%, a viability, T/C [15] of 73.4% and a viability, T/C [16] of 51.2%. The viability, T/C [17] was 49.3%, the viability, T/C [18] was 39.3% and the viability, T/C [19] was 103%. It also gave a viability, T/C [20] of 80.8%, a viability, T/C [21] of 72.8% and a viability, T/C [22] of 55.7%. It also gave a viability, T/C [23] of 48.2%, a viability, T/C [24] of 36.9% and a viability, T/C [25] of 73.6%. The viability, T/C [26] was 74.3%, the viability, T/C [27] was 56.6% and the viability, T/C [28] was 45.2%. For the same compound, the viability, T/C [29] was 44.9% and the viability, T/C [30] was 37.8%.

`C=C(F)C(=O)N1CCN(c2nc(OCC3CCCN3C)nc3c2CCN(c2cccc4cccc(Cl)c24)C3)CC1CC#N` (stereo not given) + CCN1C(C(=O)NC23CCC(C(=O)O)(CC2)CC3)C(c2cccc(Cl)c2F)C2(C(=O)Nc3cc(Cl)ccc32)C12CCCCC2 was tested, and the IC50 (second compound 0.03 µM) was 6.63 µM, the IC50 (second compound 0.0949 µM) was 5.8 µM and the IC50 (second compound 0.3 µM) was 6.3 µM. The IC50 (second compound 0.949 µM) was 6.35 µM, the IC50 (second compound 3 µM) was 5.12 µM and the viability, T/C [1] was 102%. The viability, T/C [2] was 96.2%, the viability, T/C [3] was 116% and the viability, T/C [4] was 93%. The viability, T/C [5] was 92.1%, the viability, T/C [6] was 27% and the viability, T/C [7] was 109%. The viability, T/C [8] was 112%, the viability, T/C [9] was 107% and the viability, T/C [10] was 96.7%. It also gave a viability, T/C [11] of 82.8%, a viability, T/C [12] of 22.3% and a viability, T/C [13] of 92%. For the same compound, the viability, T/C [14] was 113%, the viability, T/C [15] was 103% and the viability, T/C [16] was 90.5%. For the same compound, the viability, T/C [17] was 85%, the viability, T/C [18] was 27.5% and the viability, T/C [19] was 104%. For the same compound, the viability, T/C [20] was 103%, the viability, T/C [21] was 105% and the viability, T/C [22] was 98.2%. The viability, T/C [23] was 85.7%, the viability, T/C [24] was 26.7% and the viability, T/C [25] was 88.3%. For the same compound, the viability, T/C [26] was 102%, the viability, T/C [27] was 96.3% and the viability, T/C [28] was 84.5%. For the same compound, the viability, T/C [29] was 80.2% and the viability, T/C [30] was 10.2%.

In the case of `C=CC(=O)N1CCN(c2nc(=O)n(-c3c(C)ccnc3C(C)C)c3nc(-c4c(O)cccc4F)c(F)cc23)C(C)C1` (stereo not given) + CCN1C(C(=O)NC23CCC(C(=O)O)(CC2)CC3)C(c2cccc(Cl)c2F)C2(C(=O)Nc3cc(Cl)ccc32)C12CCCCC2, the IC50 (second compound 0.03 µM) is reported as over 10 µM, the IC50 (second compound 0.0949 µM) is reported as over 10 µM and the IC50 (second compound 0.3 µM) is reported as over 10 µM. It also gave an IC50 (second compound 0.949 µM) of over 10 µM, an IC50 (second compound 3 µM) of over 10 µM and a viability, T/C [1] of 108%. It also gave a viability, T/C [2] of 106%, a viability, T/C [3] of 108% and a viability, T/C [4] of 96.5%. It also gave a viability, T/C [5] of 107%, a viability, T/C [6] of 98.6% and a viability, T/C [7] of 103%. For the same compound, the viability, T/C [8] was 106%, the viability, T/C [9] was 110% and the viability, T/C [10] was 93.2%. It also gave a viability, T/C [11] of 101%, a viability, T/C [12] of 103% and a viability, T/C [13] of 103%. For the same compound, the viability, T/C [14] was 103%, the viability, T/C [15] was 110% and the viability, T/C [16] was 89.7%. It also gave a viability, T/C [17] of 100%, a viability, T/C [18] of 109% and a viability, T/C [19] of 102%. For the same compound, the viability, T/C [20] was 110%, the viability, T/C [21] was 117% and the viability, T/C [22] was 93.8%. For the same compound, the viability, T/C [23] was 99%, the viability, T/C [24] was 104% and the viability, T/C [25] was 94.7%. The viability, T/C [26] was 94.6%, the viability, T/C [27] was 107% and the viability, T/C [28] was 85.7%. The viability, T/C [29] was 90% and the viability, T/C [30] was 91.8%.

With `CNC(C)C(=O)NC1CN(S(=O)(=O)c2cccc(S(=O)(=O)N3CCC4CCC(C(=O)NC(c5ccccc5)c5ccccc5)N4C(=O)C(NC(=O)C(C)NC)C3)c2)CCC2CCC(C(=O)NC(c3ccccc3)c3ccccc3)N2C1=O` (stereo not given) + CCN1C(C(=O)NC23CCC(C(=O)O)(CC2)CC3)C(c2cccc(Cl)c2F)C2(C(=O)Nc3cc(Cl)ccc32)C12CCCCC2 the IC50 (second compound 0.03 µM) was over 1 µM, the IC50 (second compound 0.0949 µM) was over 1 µM and the IC50 (second compound 0.3 µM) was over 1 µM. It also gave an IC50 (second compound 0.949 µM) of over 1 µM, an IC50 (second compound 3 µM) of over 1 µM and a viability, T/C (second compound 0.03 µM, first compound 0.00316 µM) of 104%. The viability, T/C (second compound 0.03 µM, first compound 0.01 µM) was 110%, the viability, T/C [1] was 109% and the viability, T/C [2] was 95.5%. The viability, T/C [3] was 102%, the viability, T/C [4] was 88% and the viability, T/C (second compound 0.0949 µM, first compound 0.00316 µM) was 109%. It also gave a viability, T/C (second compound 0.0949 µM, first compound 0.01 µM) of 110%, a viability, T/C [7] of 106% and a viability, T/C [8] of 96.8%. It also gave a viability, T/C [9] of 93%, a viability, T/C [10] of 84.6% and a viability, T/C (second compound 0.3 µM, first compound 0.00316 µM) of 109%. For the same compound, the viability, T/C (second compound 0.3 µM, first compound 0.01 µM) was 105%, the viability, T/C [13] was 113% and the viability, T/C [14] was 94.8%. It also gave a viability, T/C [15] of 84.7%, a viability, T/C [16] of 82.5% and a viability, T/C (second compound 0.949 µM, first compound 0.00316 µM) of 103%. The viability, T/C (second compound 0.949 µM, first compound 0.01 µM) was 113%, the viability, T/C [19] was 126% and the viability, T/C [20] was 101%. The viability, T/C [21] was 92.8%, the viability, T/C [22] was 91.5% and the viability, T/C (second compound 3 µM, first compound 0.00316 µM) was 99.1%. It also gave a viability, T/C (second compound 3 µM, first compound 0.01 µM) of 102%, a viability, T/C [25] of 109% and a viability, T/C [26] of 93.1%. The viability, T/C [27] was 75% and the viability, T/C [28] was 77.7%.
